From ChEMBL document CHEMBL3877300, “Design, synthesis, docking studies and biological evaluation of novel dihydro-1,3,5-triazines as human DHFR inhibitors” (Eur J Med Chem, 2017)

Columns and labels:
[1] = Antiproliferative activity against human HL60 cells after 72 hrs by MTT assay; type: functional, cell-based; conditions: HL-60, 72 h
[2] = Antiproliferative activity against human MDA-MB-231 cells after 72 hrs by MTT assay; type: functional, cell-based; conditions: MDA-MB-231, 72 h
[3] = Antiproliferative activity against human HepG2 cells after 72 hrs by MTT assay; type: functional, cell-based; conditions: HepG2, 72 h
cells [4] = conditions: Homo sapiens, HCT-116, 72 h
Description: Antiproliferative activity against human HCT116 cells after 72 hrs by MTT assay

cells [5] = conditions: Homo sapiens, A549, 72 h
Description: Antiproliferative activity against human A549 cells after 72 hrs by MTT assay

Dihydrofolate reductase = target: T1, Dihydrofolate reductase (Homo sapiens, UniProt P00374); experiment: Inhibition of recombinant human DHFR using DHF as substrate measured every 5 sec over 6 mins in presence of NADPH by UV-Visible spectrophotometric method relative to control
T1 sequence (P00374 whole entry): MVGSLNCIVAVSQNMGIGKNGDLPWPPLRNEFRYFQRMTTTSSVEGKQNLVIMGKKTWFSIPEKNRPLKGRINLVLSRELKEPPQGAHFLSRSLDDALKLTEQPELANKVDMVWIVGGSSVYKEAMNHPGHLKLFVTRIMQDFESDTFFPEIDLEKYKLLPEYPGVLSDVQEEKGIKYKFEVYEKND

SMILES | IC50 [1] [nM] | IC50 ([2]; read-out: IC50) [nM] | IC50 [3] [nM] | IC50 (cells [4]) [nM] | IC50 (cells [5]) [nM] | IC50 (Dihydrofolate reductase) [nM] | IC50 [2] [nM]
NC1=NC2(CCSCC2)N(OCCCOc2ccc(Cl)cc2Cl)C(N)=N1 | 330 | 60 | 1380 | 1 | 210 | 4.08 | –
NC1=NC2(CCSCC2)N(OCCCOc2cccc(Br)c2)C(N)=N1 | 200 | 60 | 90 | 1 | 50 | – | –
NC1=NC2(CCOCC2)N(OCCCOc2cc(Cl)c(Cl)cc2Cl)C(N)=N1 | 2360 | – | – | 2750 | 680 | 36 | –
NC1=NC2(CCCCC2)N(OCCCOc2ccc(Cl)cc2)C(N)=N1 | 580 | 1210 | 2330 | 380 | 990 | 49 | –
COc1ccc(OCCCON2C(N)=NC(N)=NC23CCOCC3)cc1 | 1670 | – | – | 1500 | 660 | 11.1 | –
NC1=NC2(CCOCC2)N(OCCCOc2ccc(F)cc2)C(N)=N1 | 2380 | – | – | 3280 | 1060 | 46.6 | –
COc1cccc2c1C(=O)c1c(O)c3c(c(O)c1C2=O)C[C@@](O)(C(=O)CO)C[C@@H]3O[C@H]1C[C@H](N)[C@H](O)[C@H](C)O1 [DOXORUBICIN] | – | – | – | 310 | 120 | – | 720
Cc1ccc(OCCCON2C(N)=NC(N)=NC23CCOCC3)cc1 | 2580 | – | – | 2390 | 1060 | 56.7 | –
NC1=NC2(CCSCC2)N(OCCCOc2cc(Cl)c(Cl)cc2Cl)C(N)=N1 | 730 | 110 | > 100000 | 1 | > 100000 | – | –
NC1=NC2(CCOCC2)N(OCCCOc2cccc(Cl)c2)C(N)=N1 | 520 | 1020 | 150 | 120 | 150 | – | –
NC1=NC2(CCSCC2)N(OCCCOc2ccc(Cl)c(Cl)c2)C(N)=N1 | 140 | 10 | 70 | 1 | 1 | – | –
CC(C)(C)c1ccc(OCCCON2C(N)=NC(N)=NC23CCSCC3)cc1 | 280 | 1 | 70 | 1 | 1 | – | –
NC1=NC2(CCSCC2)N(OCCCOc2cccc(Cl)c2Cl)C(N)=N1 | 30 | 1 | 50 | 1 | 1 | – | –
Cc1cc(C)cc(OCCCON2C(N)=NC(N)=NC23CCOCC3)c1 | 720 | 3570 | 680 | 190 | 710 | – | –
NC1=NC2(CCSCC2)N(OCCCOc2cccc(Cl)c2)C(N)=N1 | 260 | 130 | 90 | 1 | 60 | – | –
CC(C)(C)c1ccc(OCCCON2C(N)=NC(N)=NC23CCOCC3)cc1 | 870 | – | – | 1610 | 500 | 3.72 | –
NC1=NC2(CCSCC2)N(OCCCOc2ccc(Cl)cc2)C(N)=N1 | 430 | 350 | 1100 | 10 | 580 | 18.3 | –
NC1=NC2(CCSCC2)N(OCCCOc2ccccc2Cl)C(N)=N1 | 390 | 80 | 80 | 1 | 80 | – | –
NC1=NC2(CCOCC2)N(OCCCOc2ccc(Br)cc2)C(N)=N1 | 310 | – | – | 320 | 280 | 32.5 | –
NC1=NC2(CCSCC2)N(OCCCOc2ccccc2Br)C(N)=N1 | 180 | 10 | 90 | 1 | 40 | – | –
NC1=NC2(CCOCC2)N(OCCCOc2ccc(Cl)c(Cl)c2)C(N)=N1 | 1240 | 590 | 380 | 90 | 790 | 8.23 | –
NC1=NC2(CCOCC2)N(OCCCOc2ccccc2Br)C(N)=N1 | 610 | 910 | 860 | 30 | 160 | – | –
NC1=NC2(CCOCC2)N(OCCCOc2cccc(Br)c2)C(N)=N1 | 560 | 400 | 320 | 40 | 160 | – | –
COc1ccc(OCCCON2C(N)=NC(N)=NC23CCSCC3)cc1 | 500 | 350 | 880 | 70 | 240 | – | –
NC1=NC2(CCOCC2)N(OCCCOc2cccc(Cl)c2Cl)C(N)=N1 | 440 | 140 | 330 | 5 | 100 | – | –
NC1=NC2(CCOCC2)N(OCCCOc2ccc(Cl)cc2)C(N)=N1 | 330 | – | – | 690 | 360 | 33.6 | –
NC1=NC2(CCOCC2)N(OCCCOc2ccccc2)C(N)=N1 | 2460 | – | – | 6010 | 1080 | 86.1 | –
NC1=NC2(CCOCC2)N(OCCCOc2ccccc2Cl)C(N)=N1 | 660 | 1430 | 1750 | 70 | 2700 | – | –
NC1=NC2(CCSCC2)N(OCCCOc2ccc(Br)cc2)C(N)=N1 | 350 | 440 | 1400 | 20 | 740 | 6.46 | –
